# Where two headings read alike, the source gives them in different places. Marks after values point to notes of the source that are not given here.
# How the values were obtained:
# [1] = test system: Strep. pyogenes C-203; assay: Antibacterial activity, MIC; assay type: cell-based; details: for MIC µg/ml Strep. pyogenes C-203: based on content of compound B
# [2] = test system: Klebs. pneumoniae MGH-2; assay: Antibacterial activity, MIC; assay type: cell-based; details: for MIC µg/ml Klebs. pneumoniae MGH-2: based on content of compound B
# [3] = test system: E. coli Vogel; assay: Antibacterial activity, MIC; assay type: cell-based; details: for MIC µg/ml E. coli Vogel: based on content of compound B
# [4] = test system: Klebsiella pneumoniae MGH-2; assay: Acute mouse protection test; assay type: in vivo; details: single dose given at time of challenge; for Single sc Dose PD50 (mg/kg) ± 95% Confidence Limits Klebsiella pneumoniae MGH-2: compound B series; for ED50: Klebsiella pneumoniae, compound A series
# [5] = test system: Staph. aureus UC-76; assay: Antibacterial activity, MIC; assay type: cell-based; details: for MIC µg/ml Staph. aureus UC-76: based on content of compound B
# [6] = test system: Staphylococcus aureus UC-76; assay: Acute mouse protection test; assay type: in vivo; details: single dose given at time of challenge, compound B series; for Single sc Dose PD50 (mg/kg) ± 95% Confidence Limits Staphylococcus aureus UC-76: subcutaneous
# [7] = test system: Entero cloacae MA 2646; assay: Antibacterial activity, MIC; assay type: cell-based; details: for MIC µg/ml Entero cloacae MA 2646: based on content of compound B
# [8] = test system: Pseudo. aeruginosa UI-18; assay: Antibacterial activity, MIC; assay type: cell-based
# [9] = test system: Escherichia coli Vogel; assay: Acute mouse protection test; assay type: in vivo; details: single dose given at time of challenge; for Single po Dose PD50 (mg/kg) ± 95% Confidence Limits Escherichia coli Vogel / Single sc Dose PD50 (mg/kg) ± 95% Confidence Limits Escherichia coli Vogel: compound B series; for ED50: Escherichia coli, compound A series
# [10] = test system: Strep. faecalis MGH-2; assay: Antibacterial activity, MIC; assay type: cell-based; details: for MIC µg/ml Strep. faecalis MGH-2: based on content of compound B
# [11] = test system: Strep. pneumoniae SV-1; assay: Antibacterial activity, MIC; assay type: cell-based; details: for MIC µg/ml Strep. pneumoniae SV-1: based on content of compound B
# [12] = test system: Proteus retgeri M 1771; assay: Antibacterial activity, MIC; assay type: cell-based; details: for MIC µg/ml Proteus retgeri M 1771: based on content of compound B
# [13] = test system: Staph. aureus H 228; assay: Antibacterial activity, MIC; assay type: cell-based; details: for MIC µg/ml Staph. aureus H 228: based on content of compound B
# [14] = Solubility of lyophilized and crystalline solids; assay type: physicochemical
# [15] = 10x dilution of soluble forms with standard IV solutions (pH, precipitate); assay type: physicochemical
# Method: (§1) The amount of Compound A or Compound B calculated for selected concentrations was weighed into volumetric flasks. Equimolar quantities of combining acid, amino acid, or base were added either as solutions or in dry form. Deionized water was added to bring the volume to that desired for the preselected concentrations.. All flasks were sonicated for 15 minutes, allowed to stand at room temperature for 30 minutes, then filtered through a fine frit sintered glass funnel. After the pH of the filtrate was taken, suitable dilutions were made into 0.1N HCl for ultraviolet spectrophotometric assay of concentration. Ten fold dilutions of the original filtrates were made into standard I.V. solutions.
# [16] = Solubility screening procedure (concentration and pH of filtrate); assay type: physicochemical
# Method: as §1
structure (smiles),measurement,setting,value
CCn1cc(C(=O)O)c(=O)c2cc(F)c(N3CCNCC3)nc21 [B Aspartate],MIC µg/ml Strep. pyogenes C-203,[1],6.3 µg/mL
same,MIC µg/ml Klebs. pneumoniae MGH-2,[2],0.1 µg/mL
same,MIC µg/ml E. coli Vogel,[3],<0.1 µg/mL
same,Single sc Dose PD50 (mg/kg) ± 95% Confidence Limits Klebsiella pneumoniae MGH-2,[4]; subcutaneous,1.6 ± 0.6 mg/kg
same,MIC µg/ml Staph. aureus UC-76,[5],0.1 µg/mL
same,Single po Dose PD50 (mg/kg) ± 95% Confidence Limits Staphylococcus aureus UC-76,[6],13 ± 3.0 mg/kg
same,Single sc Dose PD50 (mg/kg) ± 95% Confidence Limits Staphylococcus aureus UC-76,[6],4.3 ± 1.4 mg/kg
same,MIC µg/ml Entero cloacae MA 2646,[7],0.2 µg/mL
same,MIC µg/ml Pseudo. aeruginosa UI-18,[8]; based on content of compound B,0.4 µg/mL
same,Single po Dose PD50 (mg/kg) ± 95% Confidence Limits Escherichia coli Vogel,[9],2.9 ± 1.0 mg/kg
same,Single sc Dose PD50 (mg/kg) ± 95% Confidence Limits Escherichia coli Vogel,[9]; subcutaneous,1.3 ± 0.4 mg/kg
same,MIC µg/ml Strep. faecalis MGH-2,[10],3.1 µg/mL
same,MIC µg/ml Strep. pneumoniae SV-1,[11],3.1 µg/mL
same,MIC µg/ml Proteus retgeri M 1771,[12],<0.1 µg/mL
same,MIC µg/ml Staph. aureus H 228,[13],3.1 µg/mL
CCn1cc(C(=O)O)c(=O)c2cc(F)c(N3CCNCC3)nc21 [B Gluconate],MIC µg/ml Strep. pyogenes C-203,[1],3.1 µg/mL
same,MIC µg/ml Klebs. pneumoniae MGH-2,[2],0.2 µg/mL
same,MIC µg/ml E. coli Vogel,[3],0.1 µg/mL
same,Single sc Dose PD50 (mg/kg) ± 95% Confidence Limits Klebsiella pneumoniae MGH-2,[4]; subcutaneous,5.2 ± 1.5 mg/kg
same,MIC µg/ml Staph. aureus UC-76,[5],0.4 µg/mL
same,MIC µg/ml Entero cloacae MA 2646,[7],0.4 µg/mL
same,MIC µg/ml Pseudo. aeruginosa UI-18,[8]; based on content of compound B,0.8 µg/mL
same,Single po Dose PD50 (mg/kg) ± 95% Confidence Limits Escherichia coli Vogel,[9],2.9 ± 0.7 mg/kg
same,Single sc Dose PD50 (mg/kg) ± 95% Confidence Limits Escherichia coli Vogel,[9]; subcutaneous,1.1 ± 0.4 mg/kg
same,MIC µg/ml Strep. faecalis MGH-2,[10],3.1 µg/mL
same,MIC µg/ml Strep. pneumoniae SV-1,[11],3.1 µg/mL
same,MIC µg/ml Proteus retgeri M 1771,[12],0.2 µg/mL
same,MIC µg/ml Staph. aureus H 228,[13],1.6 µg/mL
CCn1cc(C(=O)O)c(=O)c2cc(F)c(N3CCNCC3)nc21 [B Glutamate],MIC µg/ml Strep. pyogenes C-203,[1],6.3 µg/mL
same,MIC µg/ml Klebs. pneumoniae MGH-2,[2],0.2 µg/mL
same,MIC µg/ml E. coli Vogel,[3],<0.1 µg/mL
same,Single sc Dose PD50 (mg/kg) ± 95% Confidence Limits Klebsiella pneumoniae MGH-2,[4]; subcutaneous,1.9 ± 0.9 mg/kg
same,MIC µg/ml Staph. aureus UC-76,[5],<0.1 µg/mL
same,Single po Dose PD50 (mg/kg) ± 95% Confidence Limits Staphylococcus aureus UC-76,[6],12.0 ± 3.0 mg/kg
same,Single sc Dose PD50 (mg/kg) ± 95% Confidence Limits Staphylococcus aureus UC-76,[6],2.8 ± 1.0 mg/kg
same,MIC µg/ml Entero cloacae MA 2646,[7],0.2 µg/mL
same,MIC µg/ml Pseudo. aeruginosa UI-18,[8]; based on content of compound B,0.2 µg/mL
same,Single po Dose PD50 (mg/kg) ± 95% Confidence Limits Escherichia coli Vogel,[9],2.9 ± 1.0 mg/kg
same,Single sc Dose PD50 (mg/kg) ± 95% Confidence Limits Escherichia coli Vogel,[9]; subcutaneous,1.6 ± 0.6 mg/kg
same,MIC µg/ml Strep. faecalis MGH-2,[10],3.1 µg/mL
same,MIC µg/ml Strep. pneumoniae SV-1,[11],3.1 µg/mL
same,MIC µg/ml Proteus retgeri M 1771,[12],0.1 µg/mL
same,MIC µg/ml Staph. aureus H 228,[13],1.6 µg/mL
CCn1cc(C(=O)O)c(=O)c2cc(F)c(N3CCNCC3)nc21 [B Methane Sulphonic],pH of Solution Cryst.,"[14]; CPD B salt, crystalline solid",3.15
same,pH of Solution Lyo.,"[14]; CPD B salt, lyophilized solid",1.8
same,solubility,"[14]; lyophilized solid, not necessarily maximum value, read-out: Conc. of CPD B mg/ml Lyo.",200 mg/mL
same,Solution 2 pH dil,[15]; concentrated Cpd B solution (154-221 mg/ml) diluted 10x with 5% Dextrose,3.2
same,Solution 3 pH dil,[15]; concentrated Cpd B solution (154-221 mg/ml) diluted 10x with 5% Dextrose + 0.9% NaCl,2.8
same,Solution 4 pH dil,[15]; concentrated Cpd B solution (154-221 mg/ml) diluted 10x with Lactated Ringer's Solution,4.2
same,Solution 1 pH dil,[15]; concentrated Cpd B solution (155-221 mg/ml) diluted 10x with 0.9% NaCl,2.3
same,Solution 1 ppt 4 hr,"[15]; concentrated Cpd B solution (155-221 mg/ml) diluted 10x with 0.9% NaCl, precipitate at 4 hr",yes
same,Solution 1 ppt 24 hr,"[15]; concentrated Cpd B solution (155-221 mg/ml) diluted 10x with 0.9% NaCl, precipitate at 24 hr",yes
same,Solution 3 ppt 4 hr,"[15]; concentrated Cpd B solution diluted 10x with 5% Dextrose + 0.9% NaCl, precipitate at 4 hr",yes
same,Solution 3 ppt 24 hr,"[15]; concentrated Cpd B solution diluted 10x with 5% Dextrose + 0.9% NaCl, precipitate at 24 hr",yes
same,Solution 2 ppt 4 hr,"[15]; concentrated Cpd B solution diluted 10x with 5% Dextrose, precipitate at 4 hr",hazy
same,Solution 2 ppt 24 hr,"[15]; concentrated Cpd B solution diluted 10x with 5% Dextrose, precipitate at 24 hr",hazy
same,Solution 4 ppt 4 hr,"[15]; concentrated Cpd B solution diluted 10x with Lactated Ringer's Solution, precipitate at 4 hr",yes
same,Solution 4 ppt 24 hr,"[15]; concentrated Cpd B solution diluted 10x with Lactated Ringer's Solution, precipitate at 24 hr",yes
same,Solution 1 pH dil,[15]; low-concentration Cpd B solution (26.2-52 mg/ml) diluted 10x with 0.9% NaCl,4.47
same,Solution 1 ppt 24 hr,"[15]; low-concentration Cpd B solution (26.2-52 mg/ml) diluted 10x with 0.9% NaCl, precipitate at 24 hr",no
same,pH of Solut.,[15]; undiluted concentrated Cpd B solution used for the Solution 1 dilution,1.38
same,Concen. of Cpd B,[15]; undiluted concentrated solution (at least 155 mg/ml) used for the Solution 1 dilution (for most salts for all four solutions),178000 µg/mL
same,pH of Solut.,[15]; undiluted low-concentration Cpd B solution (26.2-52 mg/ml),5.07
same,Concen. of Cpd B,"[15]; undiluted low-concentration solution (26.2-52 mg/ml), diluted with Solution 1 only",26200 µg/mL
same,Conc. of CPD B,"[16]; compound B + equimolar acid, amino acid or base in deionized water, room temperature, filtrate, UV assay",211000 µg/mL
same,pH of Solution,"[16]; pH of the filtrate, CPD B solutions",1.67^c
"CCn1cc(C(=O)O)c(=O)c2cc(F)c(N3CCNCC3)cc21 [Compound A, 1-ethyl-6-fluoro-1,4-dihydro-4-oxo-7-(1-piperazinyl)-3-quinolinecarboxylic acid, reference compound]",MIC,"[1]; Streptococcus pyogenes, C203, based on content of compound A",0.8 µg/mL
same,MIC,"[2]; Klebsiella pneumoniae, MGH2, based on content of compound A",0.2 µg/mL
same,MIC,"[3]; Escherichia coli, based on content of compound A",0.1 µg/mL
same,ED50,"[4]; MGH2, po, oral, read-out: Single po Dose PD50 (mg/kg) ± 95% Confidence Limits Klebsiella pneumoniae MGH-2",15 ± 3 mg/kg
same,ED50,"[4]; MGH2, sc, subcutaneous, read-out: Single sc Dose PD50 (mg/kg) ± 95% Confidence Limits Klebsiella pneumoniae MGH-2",1.3 ± 0.3 mg/kg
same,MIC,"[5]; Staphylococcus aureus, UC76, based on content of compound A",0.1 µg/mL
same,MIC,[7]; based on content of compound A,< 0.1 µg/mL
same,MIC µg/ml Pseudo. aeruginosa UI-18,[8]; based on content of compound A,0.4 µg/mL
same,ED50,"[9]; po, read-out: Single po Dose PD50 (mg/kg) ± 95% Confidence Limits Escherichia coli Vogel",3.3 ± 0.5 mg/kg
same,ED50,"[9]; sc, subcutaneous, read-out: Single sc Dose PD50 (mg/kg) ± 95% Confidence Limits Escherichia coli Vogel",0.5 ± 0.1 mg/kg
same,MIC,"[10]; Enterococcus faecalis, MGH2, based on content of compound A",1.6 µg/mL
same,MIC,"[11]; Streptococcus pneumoniae, SV1, based on content of compound A",0.8 µg/mL
same,MIC,[12]; based on content of compound A,< 0.1 µg/mL
same,MIC,"[13]; Staphylococcus aureus, H228, based on content of compound A",1.6 µg/mL
